Measurements taken from patent US11371013B2, “Culture medium composition and method of culturing cell or tissue using thereof” (Nissan Chemical Industries, Ltd., priority 2012, dated 2022).

Key:
HepG2 cells [1] = assay: Toxicity test of compound to hepatocytes: lactic acid dehydrogenase (LDH) activity measurement; format: cell-based, human; conditions: 1 day, DAG 0.015%
Description: (§1) This aqueous solution was sterilized at 121° C. for 20 min in an autoclave. On the other hand, HepG2 cells was mixed with DMEM medium (manufactured by WAKO) at 100000 cells/mL, and the cell suspension was dispensed to the wells of a 96-well flat bottom ultra low adhesion surface microplate (manufactured by Corning Incorporated, #3474) at 100 μL/well. […] Successively, this plate was cultured by being stood still in a CO2 incubator (37° C., 5% CO2) for 1 day.
To the culture medium (100 μL) after culturing for 1 day was added DMEM medium (manufactured by WAKO, 100 μL), and the plate was centrifuged by 440G for 15 min. The supernatant (100 μL) was dispensed to a 96-well titer plate (manufactured by Corning Incorporated), a reaction mixture (100 μL) in a cytotoxicity detection kit (manufactured by Roche Applied Science) was added, and the mixture was stood under shading at room temperature for 30 min. Successively, according to the protocol of the above-mentioned kit, the absorbance at 490 nm (reference; 600 nm) was measured by an absorbance spectrometer (manufactured by Molecular Devices, SPECTRA MAX 190), whereby the rate of the disordered cell, that is, cell disorder rate (%), was measured.

HepG2 cells [2] = assay: Toxicity test of compound to hepatocytes: number of viable cells (Cell Titer-Glo); format: cell-based, human; conditions: 1 day, DAG 0.015%, no addition = 1
Description: as §1
The culture medium (50 μL) after culturing for 1 day was dispensed to a 96-well titer plate (manufactured by Corning Incorporated), to this culture medium was added a Cell Titer-Glo (registered trade mark) reagent (manufactured by Promega, 50 μL), and the mixture was incubated at room temperature for 10 min. The luminescence intensity was measured by a multiplate reader is (manufactured by Molecular Devices, FlexStation3) to measure the number of viable cells.

Cc1c(C)c2c(c(C)c1O)CCC(C)(COc1ccc(CC3SC(=O)NC3=O)cc1)O2 (centres unmarked) [Troglitazone]
cell disorder rate (HepG2 cells [1]; 20 μM): 2.68%
cell disorder rate (HepG2 cells [1]; 40 μM): 14.7%
cell disorder rate (HepG2 cells [1]; 60 μM): 22.5%
cell disorder rate (HepG2 cells [1]; 100 μM): 60.7%
relative cell number (HepG2 cells [2]; 20 μM): 0.68
relative cell number (HepG2 cells [2]; 40 μM): 0.50
relative cell number (HepG2 cells [2]; 60 μM): 0.48
relative cell number (HepG2 cells [2]; 100 μM): 0.39
